Results on seven compounds are retold here after patent US20010046684A1, “Methods of structure-based drug design using MS/MNR” (priority 2000, published 2001).

The target in assay [1] is T1, MMP-1 (Homo sapiens, UniProt P03956).
T1 sequence (P03956 100-469): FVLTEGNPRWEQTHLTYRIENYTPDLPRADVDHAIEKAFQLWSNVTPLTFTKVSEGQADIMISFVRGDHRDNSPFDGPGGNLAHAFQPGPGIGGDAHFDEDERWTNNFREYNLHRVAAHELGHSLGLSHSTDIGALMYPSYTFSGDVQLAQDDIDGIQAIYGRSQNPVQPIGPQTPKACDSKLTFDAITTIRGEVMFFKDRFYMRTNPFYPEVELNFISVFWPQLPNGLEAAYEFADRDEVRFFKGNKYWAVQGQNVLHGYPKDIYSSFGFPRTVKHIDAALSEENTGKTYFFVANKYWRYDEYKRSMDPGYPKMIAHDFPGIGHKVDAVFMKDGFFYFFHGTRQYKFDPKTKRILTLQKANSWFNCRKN
The settings on record: Inhibitors of MMP-1; compounds having known affinities, previously tested; cited from earlier work.

In assay [2] the target is T1, MMP-1. In words: Gel-filtration (Sephedex G25) / ESI mass spectral analysis of binding to MMP-1. The following applies: 1 mM compound, 0.1 mM MMP-1, pH 6.5, room temperature, 30 minutes; unbound compound alone is retained. The protocol: 1 mM each of compounds 1, 2 and 3 (Table 1) were dissolved in DMSO and each incubated alone or in the presence of MMP-1 at a 0.1 mM in a buffer consisting of 20 mM Tris, 100 mM NaCl, 5 mM CaCl2, 0.1 mM ZnCl2, 2 mM NaN3 and 3.5 mM DTT at pH 6.5 at room temperature for 30 minutes. The final concentration of DMSO in the MMP-1:compound mixture was 5%. A total volume of 25 μl of each sample was loaded on a Sephedex G25 column in a Millipore multiscreen filtration system composed of a 0.65 μm hydrophilic durapore filter. The samples were eluted using centrifugation (15,000×g for 3 minutes). Samples were collected and analyzed by mass spectroscopy using automated ESI/MS methods in both positive and negative ionization modes with a Micromass LCT quadrapole time of flight mass spectrometer and Quattro I triple-quadrapole mass spectrometer each equipped with a Gilson 215 liquid handler.

In assay [3] the target is T2, MMP-1 (Homo sapiens, UniProt P03956).
T2 construct: made in house
T2 sequence (P03956 101-269 limits assumed): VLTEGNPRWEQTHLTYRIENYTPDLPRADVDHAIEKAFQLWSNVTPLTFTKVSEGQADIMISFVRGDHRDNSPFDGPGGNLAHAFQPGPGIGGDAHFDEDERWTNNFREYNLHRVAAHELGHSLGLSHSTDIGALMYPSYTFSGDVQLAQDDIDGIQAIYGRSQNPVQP
In words: 2D 1H-15N HSQC NMR chemical shift perturbation of 15N-MMP-1. The following applies: 0.2 mM 15N-MMP-1, compound 0.2-4.0 mM, pH 6.5, 35° C. Type of assay: binding. The procedure:
MMP-1 was labeled as described in Moy, J. Biomol. NMR, Vol. 10: 9-19 (1997). […] The 2D ^1H—^15N HSQC spectra were recorded with 256 complex points in t1, 2048 real points in t2, and 192 scans per increment. Spectra windows for t1 and t2 were 1723.7 and 8064.5 Hz, respectively, with the carrier at 4.75 and 115.2 ppm, respectively. Data were processed and analyzed using NMRPipe, NMRWish [F. Delaglio, S. Grzesiek, G. W. Vuister, G. Zhu, J. Pfeifer, and A. Bax J. Biomol. NMR 6, 277 (1995). ] and PIPP [D. S. Garrett, R. Powers, A. M. Gronenborn, and G. M. Clore J. Magn. Reson. 95, 214-20 (1991).] on a Sun Ultra 10 workstation. […] (FIG. 4A, 4B, 4C), i.e. stronger binding contributes to greater perturbations and weaker binding to less perturbations.

Take `COc1ccc(S(=O)(=O)C(CCC(C)C)(Cc2cccnc2)C(=O)NO)cc1` (centres unmarked) [Compound 7, 2-(4-Methoxy-benzenesulfonyl)-5-methyl-2-pyridin-3-ylmethyl-hexanoic acid hydroxyamide]: the IC50 on MMP-1 [1] is 760 nM.
“3-[4-(2-Azepan-1-yl-ethoxy)-phenyl]-N-hydroxy-2-(4-methoxy-benzenesulfonyl)-2-propionamide [Compound 13]”: the half-inhibitory concentration (IC50) at MMP-1 [1] was 540 nM.
For the compound `Cc1cc(Br)cc(C(=O)NO)c1N(C)S(=O)(=O)c1ccc2ccccc2c1` [Compound 11, 5-Bromo-N-hydroxy-3-methyl-2-[methyl-(naphthalene-2-sulfonyl)-amino]-benzamide], at MMP-1 [1], the 50% inhibitory concentration (IC50) was 1100 nM.
Take `COc1ccc(S(=O)(=O)N(CC(=O)O)c2c(C)cccc2C(=O)NO)cc1` [Compound 3, [(2-Hydroxycarbamoyl-6-methyl-phenyl)-(4-methoxy-benzenesulfonyl)-amino)-acetic acid]: at MMP-1 [1], the IC50 was 89000 nM. Also, the “Elution of compound through size-exclusion column in presence of MMP-1 (binding detected by ESI/MS)” value (from here on “Elution”) on MMP-1 [2] is given as “compound bound to MMP-1 is eluted”. In addition, the “Chemical shift perturbations in 2D 1H-15N HSQC spectrum of MMP-1” value on MMP-1 [3] is “induce chemical shift perturbations for residues in the vicinity of the catalytic Zn and S1′ pocket in the MMP-1 active site”.
Regarding `COc1ccc(S(=O)(=O)N(Cc2ccccc2)c2ccc(C)cc2C(=O)NO)cc1` [Compound 4, 2-[Benzyl-(4-methoxy-benzenesulfonyl)-amino]-N-hydroxy-5-methyl-benzamide], the IC50 at MMP-1 [1] is 408 nM.
Consider `COc1ccc(S(=O)(=O)N(Cc2cccnc2)[C@@H](C(=O)NO)C(C)C)cc1` [Compound 1, N2-(4-Methoxy-benzenesulfonyl)-N2-[(pyridin-3-yl)methyl]-N-hydroxy-D-valinamide], for which, at MMP-1 [2], the “Elution” value was “compound bound to MMP-1 is eluted”.
With `COc1ccc(S(=O)(=O)N(Cc2cccnc2)c2c(C(=O)O)cccc2C(=O)NO)cc1` [Compound 2, N-Hydroxy-2-[(4-methoxy-benzenesulfonyl)-pyridin-3-ylmethyl-amino]-isophthalamic acid], the IC50 at MMP-1 [1] is 9900 nM. The “Elution” value on MMP-1 [2] was “compound bound to MMP-1 is eluted”. Further, the “Chemical shift perturbations in 2D 1H-15N HSQC spectrum of MMP-1” value at MMP-1 [3] is “induce chemical shift perturbations for residues in the vicinity of the catalytic Zn and S1′ pocket in the MMP-1 active site”.
